Results published in patent US20040023884A1, “Biologically active peptides from functional domains of bactericidal/permeability-increasing protein and uses thereof” (priority 1993, published 2004).
“Also recorded” adds a separate entry of the source. Ends that are not written are not given here.

Tests used:
[1] = In vitro heparin-mediated lengthening of APTT / clotting time of heparinized plasma; type: biochemical, human; settings: for effect on the clotting time of heparinized blood (in words): FIG. 12g; for effect on heparin-mediated lengthening of APTT (in words): citrated human plasma, 25 μg/mL heparin, 0.0 to 56 μg/mL
In short: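 Citrated human plasma preincubated 1 min at 37° C with diluent (0.15 M NaCl, 0.1 M Tris-HCl, pH 7.4), with or without 25 μg/mL heparin. Compound added at 0.0 to 56 μg/mL, immediately followed by thrombin reagent. Clotting (thrombin) time measured by fibrometer.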

E. coli 0113 LPS = test: Limulus Amoebocyte Lysate (LAL) inhibition assay; type: biochemical
In short: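 BPI proteolytic fragments incubated with E. coli 0113 LPS (4 ng/mL final) for 3 h at 37 °C, then diluted in D-PBS to 200 pg/mL LPS for chromogenic LAL. Lysate 25 min, substrate 20–30 min at room temperature, acetic acid stop; OD405 expressed as percent LPS inhibition.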

E. coli strain 07-K1 = test: Radial diffusion bactericidal assay, E. coli 07-K1; type: cell-based; settings: FIG. 10c
Method: BPI proteolytic fragments produced according to Example 1 were screened for bactericidal effects using rough mutant E. coli J5 bacteria in a radial diffusion assay. Specifically, an overnight culture of E. coli J5 was diluted 1:50 into fresh tryptic soy broth and incubated for 3 hours at 37° C. to attain log phase growth of the culture. Bacteria were then pelleted at 3,000 rpm for 5 minutes in a Sorvall RT6000B centrifuge (Sorvall Instruments, Newton, Conn.). 5 mL of 10 mM sodium phosphate buffer (pH 7.4) was added and the preparation was re-pelleted. […] The bacteria were diluted to 4×10^6 CFU/mL in 10 mL of molten underlayer agarose (at approximately 45° C.) and inverted repeatedly to mix in 15 mL polypropylene tubes conventionally used for this purpose.
The entire contents of such tubes were then poured into a level square petri dish and distributed evenly by rocking the dish side-to-side. […] A series of wells were then punched into the hardened agarose using a sterile 3 mm punch attached to a vacuum apparatus. The punch was sterilized with 100% alcohol and allowed to air dry prior to use to avoid contaminating the bacterial culture.
5 or 10 μL of each of the BPI fragments were carefully pipetted into each well. As a negative control, dilution buffer (pH 8.3) was added to a separate well, and rBPI23 at concentrations of 5 μg/mL and 1 μg/mL were also added as positive controls. Each plate was incubated at 37° C. for 3 hours, and then 10 mL of molten overlayer agarose (at approximately 45° C.) was added into the level petri dish, allowed to harden and incubated overnight at 37° C. […] The bacterial zones were measured with a micrometer.
Additional experiments were performed using various other bacteria as target cells to examine the range of bactericidal killing of these BPI functional domain peptides.

Candida albicans = type: cell-based; settings: broth assay, FIGS. 11p and 11q
Method: In additional experiments, broth antibacterial assays were conducted to further determine the bactericidal activity of certain of the BPI peptides. Specifically, either E. coli J5 (rough) or E. coli 0111:B4 (smooth) bacteria were selected from single colonies on agar plates and used to inoculate 5 mL of Mueller Hinton broth and incubated overnight at 37° C. with shaking. The overnight culture was diluted (˜1:50) into 5 mL fresh broth and incubated at 37° C. to log phase (˜3 hours). Bacteria were pelleted for 5 minutes at 3000 rpm (1500×g). Bacterial pellets were resuspended in 5 mL PBS and diluted to 2×10^6 cells/mL in the Mueller Hinton broth (wherein 1 OD570 unit equals 1.25×10^9 CFU/mL). The BPI functional domain peptides to be tested were diluted to 200 μg/mL in broth and serially diluted 2-fold in 96 well culture plates (100 μL volume). All items were at 2-fold final concentration and experiments were conducted in triplicate. Bacteria were added at 100 μL/well and the plates were incubated on a shaker at 37° C. for a 20 hour period. The plates were then read on an ELISA plate multiple reader at 590 nm. One of the triplicate wells from each peptide concentration was selected for colony forming unit (CFU) determination. A 30 μL aliquot was added to 270 μL of PBS and further ten-fold serial dilutions were performed. Then a 50 μL aliquot was plated on tryptic soy agar and incubated overnight. Colonies were counted and final bacterial concentrations determined. The results of these assays are depicted in FIGS. 9e (for E. coli J5) and 9f (for E. coli 0111:B4).
In light of the results of the experiments disclosed in Example 15, the bactericidal activity of domain II-domain III combination peptides were compared with the bactericidal activity of each of the component BPI domain II and domain III peptides, against a number of different bacteria and other microorganisms. The following BPI functional domain peptides as described above were used in radial diffusion bactericidal assays (Example 2) and broth bactericidal assays (Example 13) essentially as described in Example 15 above. These Figures show results of bactericidal assays using the following bacterial strains: […]

C. albicans = test: Radial diffusion fungicidal assay, Candida albicans; type: cell-based; settings: radial diffusion

Row | Substance | effect on the clotting time of heparinized blood (in words) [1] | LAL / LPS inhibition activity (in words) (E. coli 0113 LPS) | bactericidal activity (in words) (E. coli strain 07-K1) | fungicidal activity (in words) (Candida albicans) | C. albicans: pmol required for 30 mm^2 zone (C. albicans) | effect on heparin-mediated lengthening of APTT (in words) [1]
1 | KWKAQKRFLKKWKAQKRFLK-NH2 (C-terminus assumed) [BPI.7] | greatest effect; also recorded: less of a decrease in clotting times | significant LPS inhibition properties | high levels of bactericidal activity | – | – | –
2 | KWKAAARFLKKWKAAARFLK [BPI.48] | – | – | – | much lower activity levels | – | –
3 | IKISGKWKAQKRFLK [BPI.2] | less of a decrease in clotting times | no significant LPS inhibition activity | – | much lower activity levels | – | –
4 | KSKVGWLIQLFHKK-NH2 (C-terminus assumed) [BPI.13] | – | – | low levels of bactericidal activity | found to have fungicidal activity | 221.63 pmol | –
5 | KSKVGWLIQLFHKKKSKVGWLIQLFHKK-NH2 (C-terminus assumed) [BPI.29] | greatest effect | – | moderate bactericidal activity | much lower activity levels | >1469.25 pmol | inhibit the heparin-mediated lengthening of APTT
6 | NVGLKFSISNANIKISGKWKAQKRFLK [BPI.3] | smaller effect | moderate LPS inhibition activity | – | – | – | –
7 | KWKAQKRFLKKSKVGWLIQLFHKK-NH2 (C-terminus assumed) [BPI.30] | greatest effect | – | high levels of bactericidal activity | much lower activity levels | >1653.50 pmol | inhibit the heparin-mediated lengthening of APTT
